Here are results for 13 molecules from ChEMBL document CHEMBL3045260, “Synthesis, anti-microbial evaluation, and QSAR studies of 4-amino-3-hydroxy-naphthalene-1-sulfonic acid derivatives” (2012).

What all share (type): functional
For assay [1], the system named is Aspergillus niger. Put plainly: Ratio of MFC to MIC for Aspergillus niger MTCC 8189.
Assay [2] relates to Candida albicans. Put plainly: Ratio of MFC to MIC for Candida albicans MTCC 227.
In assay [3] the test system is Escherichia coli. Put plainly: Ratio of MBC to MIC for Escherichia coli MTCC 1652.
In assay [4] the test system is Bacillus subtilis. In words: Ratio of MBC to MIC for Bacillus subtilis MTCC 2063.
Assay [5] deals with Aspergillus niger. Put plainly: Fungicidal activity against Aspergillus niger MTCC 8189.
Assay [6] has as its system Staphylococcus aureus. In words: Ratio of MBC to MIC for Staphylococcus aureus MTCC 2901.
Assay [7] relates to Candida albicans. Put plainly: Fungicidal activity against Candida albicans MTCC 227.
Assay [8] relates to Escherichia coli. In words: Bactericidal activity against Escherichia coli MTCC 1652.
Assay [9] deals with Bacillus subtilis. In words: Bactericidal activity against Bacillus subtilis MTCC 2063.
In assay [10] the test system is Aspergillus niger. In words: Antifungal activity against Aspergillus niger MTCC 8189 after 7 days by tube dilution method.
Assay [11] relates to Staphylococcus aureus. In words: Bactericidal activity against Staphylococcus aureus MTCC 2901.
Assay [12] deals with Candida albicans. In words: Antifungal activity against Candida albicans MTCC 227 after 48 hr by tube dilution method.
Assay [13] relates to Escherichia coli. Put plainly: Antibacterial activity against Escherichia coli MTCC 1652 after 24 hr by tube dilution method.
Assay [14] relates to Bacillus subtilis. In words: Antibacterial activity against Bacillus subtilis MTCC 2063 after 24 hr by tube dilution method.
Assay [15] relates to Staphylococcus aureus. Put plainly: Antibacterial activity against Staphylococcus aureus MTCC 2901 after 24 hr by tube dilution method.

≈ marks a conversion by molar mass, not a printed value. Some results are limits rather than exact numbers.

For `COc1cccc(/C=N/c2c(O)cc(S(=O)(=O)O)c3ccccc23)c1O`, the Ratio in the assay on Aspergillus niger [1], with Candida albicans [2], in the assay with Escherichia coli [3], with Bacillus subtilis [4] and with Staphylococcus aureus [6] was 3 in each case. Besides, the minimal fungicidal concentration (MFC) in the assay with Aspergillus niger [5] and in the assay on Candida albicans [7] was greater than 140 µM each time. Moreover, the figures for the MBC with Escherichia coli [8], with Bacillus subtilis [9] and in the assay with Staphylococcus aureus [11] were greater than 140 µM, greater than 140 µM and 140 µM (≈ 52.3 µg/mL), respectively. Also, the “-logMIC” value with Aspergillus niger [10] was 1.48; with Candida albicans [12], 1.48; in the assay with Escherichia coli [13], 1.48; with Bacillus subtilis [14], 1.48; in the assay on Staphylococcus aureus [15], 1.17.
Take `O=S(=O)(O)c1cc(O)c(/N=C/c2ccccc2Cl)c2ccccc12`: the Ratio in the assay on Aspergillus niger [1], in the assay with Candida albicans [2], in the assay with Escherichia coli [3], with Bacillus subtilis [4] and with Staphylococcus aureus [6] was 3 in each case. Moreover, the minimal fungicidal concentration (MFC) in the assay on Aspergillus niger [5] and against Candida albicans [7] was greater than 140 µM throughout. Also, the minimal bactericidal concentration (MBC) against Escherichia coli [8], with Bacillus subtilis [9] and against Staphylococcus aureus [11] was greater than 140 µM in each case. In addition, the “-logMIC” value with Aspergillus niger [10] was found to be 1.46; with Candida albicans [12] it was 1.46; in the assay on Escherichia coli [13], 1.46; in the assay with Bacillus subtilis [14], 1.46; with Staphylococcus aureus [15] it was 1.16.
As to `COc1cc(/C=N/c2c(O)cc(S(=O)(=O)O)c3ccccc23)ccc1O`, the Ratio in the assay with Aspergillus niger [1], with Candida albicans [2], with Escherichia coli [3], with Bacillus subtilis [4] and in the assay on Staphylococcus aureus [6] was 3 in each case. The results for the minimum fungicidal concentration (MFC) against Aspergillus niger [5] and with Candida albicans [7] were 160 µM (≈ 59.7 µg/mL) and greater than 160 µM, respectively. The MBC in the assay with Escherichia coli [8] was greater than 160 µM; against Bacillus subtilis [9] it was greater than 160 µM; with Staphylococcus aureus [11], 160 µM (≈ 59.7 µg/mL). Also, the “-logMIC” value in the assay on Aspergillus niger [10] turned out to be 1.48; in the assay on Candida albicans [12], 1.48; in the assay with Escherichia coli [13], 1.48; in the assay with Bacillus subtilis [14], 1.48; with Staphylococcus aureus [15], 1.17.
Consider `COc1ccccc1/C=N/c1c(O)cc(S(=O)(=O)O)c2ccccc12`, for which the Ratio with Aspergillus niger [1], in the assay with Candida albicans [2], with Escherichia coli [3], with Bacillus subtilis [4] and with Staphylococcus aureus [6] was 3 in each case. The MFC in the assay with Aspergillus niger [5] and with Candida albicans [7] was greater than 130 µM throughout. The MBC with Escherichia coli [8], against Bacillus subtilis [9] and with Staphylococcus aureus [11] was greater than 130 µM throughout. The “-logMIC” value was 1.46 with Aspergillus niger [10]; 1.46 in the assay with Candida albicans [12]; 1.46 with Escherichia coli [13]; 1.46 in the assay on Bacillus subtilis [14]; 1.16 with Staphylococcus aureus [15].
On to `O=S(=O)(O)c1cc(O)c(/N=C/c2cccc(O)c2)c2ccccc12`, for which the Ratio with Aspergillus niger [1], with Candida albicans [2], with Escherichia coli [3], in the assay on Bacillus subtilis [4] and in the assay with Staphylococcus aureus [6] was 3 throughout. Moreover, the figures for the minimal fungicidal concentration (MFC) in the assay on Aspergillus niger [5] and against Candida albicans [7] were 130 µM (≈ 44.6 µg/mL) and greater than 130 µM, respectively. In addition, the MBC with Escherichia coli [8], with Bacillus subtilis [9] and against Staphylococcus aureus [11] was greater than 130 µM throughout. The “-logMIC” value in the assay with Aspergillus niger [10] is recorded as 1.44; in the assay with Candida albicans [12], 1.44; with Escherichia coli [13], 1.44; with Bacillus subtilis [14], 1.44; in the assay with Staphylococcus aureus [15] it was 1.14.
Consider `COc1ccc(/C=N/c2c(O)cc(S(=O)(=O)O)c3ccccc23)cc1OC`, for which the Ratio in the assay with Aspergillus niger [1], in the assay with Candida albicans [2], in the assay with Escherichia coli [3], with Bacillus subtilis [4] and with Staphylococcus aureus [6] was 3 each time. For the same molecule, the minimum fungicidal concentration (MFC) with Aspergillus niger [5] and with Candida albicans [7] was greater than 150 µM throughout. For the same molecule, the MBC in the assay with Escherichia coli [8], with Bacillus subtilis [9] and against Staphylococcus aureus [11] was greater than 150 µM throughout. The “-logMIC” value in the assay on Aspergillus niger [10] amounted to 1.49; with Candida albicans [12], 1.49; in the assay on Escherichia coli [13], 1.49; with Bacillus subtilis [14] it was 1.49; in the assay on Staphylococcus aureus [15] it was 1.19.
With `COc1cccc(/C=N/c2c(O)cc(S(=O)(=O)O)c3ccccc23)c1`, the Ratio with Aspergillus niger [1], with Candida albicans [2], in the assay with Escherichia coli [3], in the assay with Bacillus subtilis [4] and in the assay with Staphylococcus aureus [6] was 3 each time. In addition, the MFC in the assay on Aspergillus niger [5] and in the assay on Candida albicans [7] was greater than 120 µM each time. Further, the MBC in the assay on Escherichia coli [8] was greater than 120 µM; in the assay on Bacillus subtilis [9] it was greater than 120 µM; against Staphylococcus aureus [11] it was 120 µM (≈ 42.9 µg/mL). Besides, the “-logMIC” value is given as 1.46 with Aspergillus niger [10]; 1.46 in the assay on Candida albicans [12]; 1.46 in the assay with Escherichia coli [13]; 1.46 in the assay on Bacillus subtilis [14]; 1.16 in the assay with Staphylococcus aureus [15].
For `O=S(=O)(O)c1cc(O)c(/N=C/c2ccc(Cl)cc2)c2ccccc12`, the Ratio in the assay with Aspergillus niger [1], in the assay with Candida albicans [2], in the assay on Escherichia coli [3], in the assay with Bacillus subtilis [4] and in the assay on Staphylococcus aureus [6] was 3 in each case. Also, the MFC against Aspergillus niger [5] and against Candida albicans [7] was greater than 140 µM throughout. Besides, the MBC against Escherichia coli [8], with Bacillus subtilis [9] and in the assay on Staphylococcus aureus [11] was greater than 140 µM in each case. Moreover, the “-logMIC” value in the assay on Aspergillus niger [10], with Candida albicans [12], in the assay on Escherichia coli [13], with Bacillus subtilis [14] and with Staphylococcus aureus [15] was 1.16 each time.
Consider `O=S(=O)(O)c1cc(O)c(/N=C/c2ccccc2)c2ccccc12`, for which the Ratio with Aspergillus niger [1], with Candida albicans [2], in the assay on Escherichia coli [3], in the assay with Bacillus subtilis [4] and in the assay on Staphylococcus aureus [6] was 3 throughout. For the same molecule, the minimum fungicidal concentration (MFC) against Aspergillus niger [5] and with Candida albicans [7] was greater than 130 µM in each case. Further, the minimal bactericidal concentration (MBC) against Escherichia coli [8], in the assay on Bacillus subtilis [9] and in the assay on Staphylococcus aureus [11] was greater than 130 µM throughout. Moreover, the “-logMIC” value is reported as 1.42 with Aspergillus niger [10]; 1.42 in the assay with Candida albicans [12]; 1.42 in the assay on Escherichia coli [13]; 1.42 in the assay with Bacillus subtilis [14]; 1.12 in the assay on Staphylococcus aureus [15].
As to `COc1cc(/C=N/c2c(O)cc(S(=O)(=O)O)c3ccccc23)cc(OC)c1OC`, the Ratio in the assay on Aspergillus niger [1], with Candida albicans [2], with Escherichia coli [3], in the assay on Bacillus subtilis [4] and in the assay with Staphylococcus aureus [6] was 3 each time. Besides, the MFC against Aspergillus niger [5] and in the assay on Candida albicans [7] was greater than 150 µM each time. Also, the minimum bactericidal concentration (MBC) with Escherichia coli [8], in the assay on Bacillus subtilis [9] and in the assay with Staphylococcus aureus [11] was greater than 150 µM each time. In addition, the “-logMIC” value in the assay with Aspergillus niger [10] turned out to be 1.52; in the assay on Candida albicans [12], 1.52; with Escherichia coli [13], 1.52; in the assay on Bacillus subtilis [14], 1.52; with Staphylococcus aureus [15] it was 1.22.
For the molecule `O=CCCC/C=N/c1c(O)cc(S(=O)(=O)O)c2ccccc12`, the Ratio in the assay with Aspergillus niger [1], in the assay on Candida albicans [2], in the assay with Escherichia coli [3], in the assay on Bacillus subtilis [4] and in the assay on Staphylococcus aureus [6] was 3 throughout. Also, the results for the minimal fungicidal concentration (MFC) in the assay on Aspergillus niger [5] and with Candida albicans [7] were 30 µM (≈ 9.64 µg/mL) and greater than 130 µM, respectively. The MBC against Escherichia coli [8], against Bacillus subtilis [9] and in the assay with Staphylococcus aureus [11] was greater than 130 µM each time. Moreover, the “-logMIC” value is listed as 1.41 with Aspergillus niger [10]; 1.41 with Candida albicans [12]; 1.41 in the assay with Escherichia coli [13]; 1.41 in the assay on Bacillus subtilis [14]; 1.11 in the assay on Staphylococcus aureus [15].
Regarding `O=S(=O)(O)c1cc(O)c(/N=C/c2cccc(Cl)c2)c2ccccc12`, the Ratio in the assay with Aspergillus niger [1], in the assay with Candida albicans [2], in the assay on Escherichia coli [3], in the assay on Bacillus subtilis [4] and with Staphylococcus aureus [6] was 3 each time. The MFC against Aspergillus niger [5] and against Candida albicans [7] was greater than 140 µM throughout. Also, the results for the MBC with Escherichia coli [8], in the assay on Bacillus subtilis [9] and against Staphylococcus aureus [11] were greater than 140 µM, greater than 140 µM and 140 µM (≈ 50.7 µg/mL), respectively. The “-logMIC” value turned out to be 1.46 with Aspergillus niger [10]; 1.46 with Candida albicans [12]; 1.46 with Escherichia coli [13]; 1.46 in the assay with Bacillus subtilis [14]; 1.16 in the assay on Staphylococcus aureus [15].
Take `O=Cc1ccc(/C=N/c2c(O)cc(S(=O)(=O)O)c3ccccc23)cc1`: the Ratio with Aspergillus niger [1], in the assay on Candida albicans [2], in the assay on Escherichia coli [3], in the assay on Bacillus subtilis [4] and in the assay on Staphylococcus aureus [6] was 3 each time. In addition, the results for the minimum fungicidal concentration (MFC) against Aspergillus niger [5] and with Candida albicans [7] were 140 µM (≈ 49.8 µg/mL) and greater than 140 µM, respectively. In addition, the MBC against Escherichia coli [8] was greater than 140 µM; in the assay on Bacillus subtilis [9], greater than 140 µM; against Staphylococcus aureus [11], 140 µM (≈ 49.8 µg/mL). Moreover, the “-logMIC” value in the assay on Aspergillus niger [10] is 1.45; in the assay on Candida albicans [12] it was 1.45; with Escherichia coli [13], 1.45; in the assay on Bacillus subtilis [14], 1.45; in the assay with Staphylococcus aureus [15] it was 1.15.

A word on the MFC: it is the smallest concentration meeting the test's criterion for killing the fungus. The term MBC denotes the lowest tested concentration that kills the bacteria rather than only halting them.
